From US6956049B1, “Methods of modulating processes mediated by excitatory amino acid receptors” (Merck & Co., Inc., priority 1999, dated 2005)
Where a name gives a salt, the structure may show the parent alone.

Columns and labels:
hmGluR5a receptor = target: T1, hmGluR5a receptor (Homo sapiens, UniProt P41594); experiment: Calcium flux assay; assay type: cell-based; conditions: hmGluR5a/L38-20 cells (mouse fibroblast Ltk), fura-2, glutamate 10 μM (EC80); read-out: Ca^2+ Flux
T1 construct: expressed in transfected cells; host or cells: mouse fibroblast Ltk cells (hmGluR5a/L38-20 cell line)
T1 sequence (P41594 21-1180 isoform P41594-2 limits assumed): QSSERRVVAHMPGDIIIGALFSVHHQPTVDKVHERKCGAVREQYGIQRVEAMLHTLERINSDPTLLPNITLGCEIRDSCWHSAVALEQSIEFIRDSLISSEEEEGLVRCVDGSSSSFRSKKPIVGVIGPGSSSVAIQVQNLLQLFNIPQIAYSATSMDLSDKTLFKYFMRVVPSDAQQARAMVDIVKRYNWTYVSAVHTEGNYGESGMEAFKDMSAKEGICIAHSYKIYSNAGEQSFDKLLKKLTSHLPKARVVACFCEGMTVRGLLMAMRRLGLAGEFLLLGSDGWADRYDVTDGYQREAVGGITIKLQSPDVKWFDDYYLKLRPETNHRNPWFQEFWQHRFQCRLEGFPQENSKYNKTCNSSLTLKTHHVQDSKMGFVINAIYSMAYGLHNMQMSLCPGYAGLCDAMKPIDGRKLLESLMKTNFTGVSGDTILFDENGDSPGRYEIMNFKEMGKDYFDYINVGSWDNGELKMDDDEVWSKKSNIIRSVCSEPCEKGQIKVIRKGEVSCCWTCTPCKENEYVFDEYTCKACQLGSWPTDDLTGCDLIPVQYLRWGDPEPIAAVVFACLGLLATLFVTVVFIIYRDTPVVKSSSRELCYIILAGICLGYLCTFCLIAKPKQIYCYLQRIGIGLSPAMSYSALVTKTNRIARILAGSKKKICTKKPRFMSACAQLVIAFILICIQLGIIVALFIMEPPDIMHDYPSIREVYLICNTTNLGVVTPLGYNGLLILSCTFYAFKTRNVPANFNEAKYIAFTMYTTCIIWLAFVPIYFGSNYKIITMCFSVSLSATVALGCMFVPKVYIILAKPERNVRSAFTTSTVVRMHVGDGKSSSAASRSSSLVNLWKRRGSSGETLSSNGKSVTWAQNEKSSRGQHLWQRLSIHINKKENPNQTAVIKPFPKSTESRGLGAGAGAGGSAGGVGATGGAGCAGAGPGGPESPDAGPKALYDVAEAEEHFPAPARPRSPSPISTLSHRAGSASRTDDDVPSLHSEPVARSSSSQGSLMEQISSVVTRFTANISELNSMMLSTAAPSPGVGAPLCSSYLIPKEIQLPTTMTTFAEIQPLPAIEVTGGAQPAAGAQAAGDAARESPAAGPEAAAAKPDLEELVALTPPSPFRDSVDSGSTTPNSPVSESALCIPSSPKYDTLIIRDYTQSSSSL
Description: The activity of compounds was examined against the hmGluR5a receptor stably expressed in mouse fibroblast Ltk cells (the hmGluR5a/L38-20 cell line). See generally Daggett et al., Neuropharmacology 34:871–886 (1995). Receptor activity was detected by changes in intracellular calcium ([Ca^++]i) measured using the fluorescent calcium-sensitive dye, fura-2. hmGluR5a/L38-20 cells were plated onto 96-well plates, and loaded with 3 μM fura-2 for 1 h. Unincorporated dye was washed from the cells, and the cell plate was transferred to a custom-built 96-channel fluorimeter (SIBIA-SAIC, La Jolla, Calif.) which is integrated into a fully automated plate handling and liquid delivery system. Cells were excited at 350 and 385 nm with a xenon source combined with optical filters. Emitted light was collected from the sample through a dichroic mirror and a 510-nm interference filter and directed into a cooled CCD camera (Princeton Instruments). Image pairs were captured approximately every 1 s, and ratio images were generated after background subtraction. After a basal reading of 20 s, an EC80 concentration of glutamate (10 μM) was added to the well, and the response evaluated for another 60 s. The glutamate-evoked increase in [Ca^++]i in the presence of the screening compound was compared to the response of glutamate alone (the positive control).

hmGluR5 = target: T2, hmGluR5 (Homo sapiens, UniProt P41594); experiment: Phosphatidylinositol hydrolysis (IP1) assay; assay type: cell-based; conditions: hmGluR5/L38-20 cells (mouse fibroblast Ltk), [3H]-inositol, 10 μM glutamate, 1 hour; read-out: PI Hydrolysis
T2 construct: expressed in transfected cells; host or cells: mouse fibroblast Ltk cells (hmGluR5/L38-20 cells)
T2 sequence (P41594 21-1180 isoform P41594-2 limits assumed): as above
Description: Inositol phophate assays were performed as described by Berridge et al. (1982) (Berridge et al, (1982) Biochem. J. 206:587–5950; and Nakajima et al., J. Biol. Chem. 267:2437–2442 (1992)) with slight modifications. Mouse fibroblast Ltk cells expressing hmGluR5 (hmGluR5/L38-20 cells) were seeded in 24-well plates at a density of 8×10^5 cells/well. One μCi of [^3H]-inositol (Amersham PT6-271; Arlington Heights, Ill.; specific activity=17.7 Ci/mmol) was added to each well and incubated for 16 h at 37° C. Cells were washed twice and incubated for 45 min in 0.5 ml of standard Hepes buffered saline buffer (HBS; 125 mM NaCl, 5 mM KCl, 0.62 mM MgSO4, 1.8 mM CaCl2, 20 mM HEPES, 6 mM Glucose, pH to 7.4). The cells were washed with HBS containing 10 mM LiCl, and 400 μl buffer added to each well. Cells were incubated at 37° C. for 20 min. For testing, 50 μl of 10X compounds used in the practice of the invention (made in HBS/LiCl (100 mM)) was added and incubated for 10 minutes. Cells were activated by the addition of 10 μM glutamate, and the plates left for 1 hour at 37° C.
The incubations were terminated by the addition of 1 ml ice-cold methanol to each well. In order to isolate inositol phosphates (IPs), the cells were scraped from wells, and placed in numbered glass test tubes. One ml of chloroform was added to each tube, the tubes were mixed, and the phases separated by centrifugation. IPs were separated on Dowex anion exchange columns (AG 1-X8 100–200 mesh formate form). The upper aqueous layer (750 ul) was added to the Dowex columns, and the columns eluted with 3 ml of distilled water. The eluents were discarded, and the columns were washed with 10 mls of 60 mM ammonium formate/5 mM Borax, which was also discarded as waste. Finally the columns were eluted with 4 ml of 800 mM ammonium formate/0.1 M formic acid, and the samples collected in scintillation vials. Scintillant was added to each vial, and the vials shaken, and counted in a scintillation counter after 2 hours. Phosphatidylinositol hydrolysis in cells treated with test compounds was compared to phosphatidylinositol hydrolysis in cells treated with control and the results are shown in Table 1.

[1] = Assessment of salt forms (solubility, hygroscopicity); assay type: physicochemical; conditions: salt form
Description: Various salt forms of 2-(phenylethynyl)-1,3-thiazole were prepared, and their solubility, hygroscopicity, and physical state were assessed. The compound 2-phenylethynl-1,3-thiazole was prepared (see Example 8) as well as hydrochloric acid, fumaric acid, methylsulfonic acid and toluene sulfonic acid salt forms of the compound. The hydrochloric acid salt form of 2-(phenylethynyl)-1,3-thiazole is an oil. A fumaric acid salt form was not obtained by preparative steps including trituration with diethylether. Preparation of the methylsulfonate form results in a semi solid, hygroscopic material. These salt forms are typically unsuitable for certain pharmaceutical formulations, such as for tablets, capsules, and the like. In contrast to the salt forms of 2-(phenylethynyl)-1,3-thiazole, described previously, the tosylate salt form (i.e., the toluene sulfonic acid salt) is a solid having a melting point of about 129 up to 131° C. and is non-hygroscopic. Therefore, this form is presently preferred for pharmaceutical formulations of tablets, capsules, and the like.

[2] = system: male Sprague-Dawley rats, CFA-inflamed hind paw; experiment: Analgesic animal model (CFA model); assay type: in vivo; design: key: +++: high analgesic efficacy; conditions: rat, 240 μmol/kg intraperitoneal, evaluated one to 24 hours post administration
Description: Compounds that modulate receptor-mediated analgesic responses wer tested in an animal model. Robust inflammation was induced by the injection of complete Freund's adjuvant (CFA, 10 mg/ml) subcutaneously into the hind paw of male Sprague-Dawley rats (150–175 g). The inflammatory response to CFA began approximately 12-hrs post-CFA injection and persisted for several days following inoculation. The inflamed hind paw became sensitive to noxious (paw pinch, plantar test) or innocuous (cold plate, Von Frey filaments) stimuli compared to the contralateral hind paw. Test compounds (240 μmol/kg) were administered via intraperitoneal injection. The analgesic activity of compounds was evaluated one to 24-hours post administration by assessing (1) the duration of analgesic effect; (2) threshold to elicit response; and (3) time from painful stimulus to response. […] For each group of animals, responses following drug administration were compared to responses prior to drug administration.

| IC50 (hmGluR5a receptor) [nM] | IC50 (hmGluR5) [nM] | hygroscopicity [1] | solubility in aqueous medium [1] | melting point [°C] | Compound | CFA Model (analgesic efficacy) [2] |
| --- | --- | --- | --- | --- | --- | --- |
| 10 to 100 | 10000 to 100000 |  |  |  | Cc1csc(C=Cc2ccccc2)n1 (mixture of isomers) [Example 2, 4-Methyl-2-[2-phenylethenyl]-1,3-thiazole] |  |
| 1000 to 10000 | 10000 to 100000 |  |  |  | Cc1coc(/C=C/c2ccccc2)n1 [Example 1, 4-Methyl-2-[(E)-2-phenylethenyl]-1,3-oxazole] |  |
| 100 to 1000 | 1000 to 10000 |  |  |  | Cc1nc(/C=C/c2ccccc2)cs1 [Example 3, 2-Methyl-4-[(E)-2-phenylethenyl]-1,3-thiazole] |  |
| ≤ 10 | ≤ 100 |  |  |  | Cc1nc(C#Cc2ccccc2)cs1 [Example 4, 2-Methyl-4-(phenylethynyl)-1,3-thiazole, p-toluenesulfonic acid salt] |  |
| 10 to 100 | 100 to 1000 |  |  |  | Nc1nc(C#Cc2ccccc2)cs1 [Example 5, 4-(Phenylethynyl)-1,3-thiazol-2-amine, p-toluenesulfonic acid salt] |  |
| 10 to 100 | 10000 to 100000 |  |  |  | Cc1ncsc1C#Cc1ccccc1 [Example 6, 4-Methyl-5-(phenylethynyl)-1,3-thiazole] |  |
| 100 to 1000 | > 100000 |  |  |  | Cc1ncsc1C#Cc1ccccc1F [Example 7, 5-[(2-Fluorophenyl)ethynyl]-4-methyl-1,3-thiazole] |  |
| ≤ 10 | 100 to 1000 | non-hygroscopic | soluble in aqueous medium |  | C(#Cc1nccs1)c1ccccc1.Cc1ccc(S(=O)(=O)O)cc1 [Example 8, 2-(Phenylethynyl)-1,3-thiazole, p-toluenesulfonic acid salt] | +++ |
| 10 to 100 | 1000 to 10000 |  |  | 79 to 82 | Brc1csc(C#Cc2ccccc2)n1 [Example 9, 4-bromo-2-(phenylethynyl)-1,3-thiazole] |  |
| > 10000 | > 100000 |  |  | 82 to 83 | Cc1cnc(C#Cc2ccccc2)s1 [Example 10, 5-Methyl-2-(phenylethynyl)-1,3-thiazole] |  |
| 10 to 100 | 100 to 1000 |  |  |  | Cc1cccc(C#Cc2nccs2)c1 [Example 11, 2-[(3-methylphenyl)ethynyl]-1,3-thiazole] |  |
| 100 to 1000 | 1000 to 10000 |  |  | 78 to 79 | Fc1ccc(C#Cc2nccs2)cc1 [Example 12, 2-[(4-Fluorophenyl)ethynyl]-1,3-thiazole] |  |
| 10 to 100 | 100 to 1000 |  |  |  | Fc1ccccc1C#Cc1nccs1 [Example 13, 2-[(2-Fluorophenyl)ethynyl]-1,3-thiazole] |  |
| ≤ 10 | 1000 to 10000 |  |  | 55 to 60 | Cc1nc(C#Cc2ccccc2)sc1C [Example 14, 4,5-Dimethyl-2-(phenylethynyl)-1,3-thiazole] |  |
| > 10000 | > 100000 |  |  | 166 to 168 | Cc1nc(/C=C/c2ccccc2)no1 [Example 15, 5-Methyl-3-[(E)-2-phenylethenyl]-1,2,4-oxadiazole] |  |
| > 10000 | > 100000 |  |  | 53 to 55 | C(=C\c1ncno1)/c1ccccc1 [Example 16, 5-[(E)-2-phenylethenyl]-1,2,4-oxadiazole] |  |
| > 10000 | > 100000 |  |  | 67 to 70 | Cn1ncnc1/C=C/c1ccccc1 [Example 17, 1-Methyl-5-[(E)-2-phenylethenyl]-1H-1,2,4-triazole] |  |
| > 10000 | > 100000 |  |  | 131 to 134 | Cc1n[nH]c(/C=C/c2ccccc2)n1 [Example 18, 3-Methyl-5-[(E)-2-phenylethenyl]-1H-1,2,4-triazole] |  |
| 100 to 1000 | 10000 to 100000 |  |  | 79 to 80 | CCOC(=O)c1nc(/C=C/c2ccccc2)ns1 [Example 19, Ethyl 3-[(E)-2-phenylethenyl]-1,2,4-thiadiazole-5-carboxylate] |  |
| 1000 to 10000 | > 100000 |  |  | 119 to 120 | OCc1nc(/C=C/c2ccccc2)ns1 [Example 20, {3-[(E)-2-phenylethenyl]-1,2,4-thiadiazol-5-yl}methanol] |  |
| > 10000 | > 100000 |  |  |  | Cc1ccc(C#CC2=CCCCC2)s1 [Example 21, 2-(1-Cyclohexen-1-ylethynyl)-5-methylthiophene] |  |
|  |  | hygroscopic |  |  | C(#Cc1nccs1)c1ccccc1 [methylsulfonate form, 2-(phenylethynyl)-1,3-thiazole] |  |
